Patent US10137171B2, “Methods of treatment using a pentapeptide derived from the C-Terminus of Glucagon-Like Peptide 1 (GLP-1)” (The General Hospital Corporation, priority 2011, dated 2018)
“Also recorded” adds a separate entry of the source. Where no end group is shown, it is not given here.

Columns and labels:
[1] = test system: insulin-resistant isolated mouse hepatocytes; assay: Glucose production assay in isolated hepatocytes; assay type: cell-based; settings: stimulated by cAMP/dexamethasone/lactate; basal glucose production not suppressed
Description: FIG. 8 is a bar graph showing suppression of glucose production by the pentapeptide GLP-1(32-36)amide (LVKGRamide (SEQ ID NO:1)) in insulin-resistant hepatocytes. Mice (male, C57bl/6) from 12-19 weeks of age were fasted overnight (16 hrs) and primary hepatocytes were isolated using a collagen and perfusion gradient purification. Cells were first seeded using a Dulbecco's modified Eagle's medium (DMEM) supplemented with 10% FBS, 1 g/L glucose, 2 mmol/1 sodium pyruvate, 1 micromol/L dexamethasone, and 0.1 micromol/L insulin, and later maintained in DMEM with 0.2% BSA, 1 g/L glucose, 0.1 micromol/L dexamethasone, and lnmol/L insulin. […] The readings were then normalized to total protein content determined from whole-cell lysates. […]
Primary hepatocytes (2×10^5 cells per well in twelve-well plates) were pre-treated with GLP-1(32-36)amide for 1 hour followed by the stimulation of insulin resistance by the addition of cAMP (10 microM)/dexamethasone ([…])/sodium lactate (2 mM) in glucose-free DMEM without phenol red. […] The readings were then normalized to total protein content determined from whole-cell lysates.

diet-induced obese mice = assay: Metabolic parameters in closed metabolic chambers (TSE PhenoMaster/LabMaster); assay type: in vivo, mouse
Description: FIGS. 4A-C show the results of metabolic measurements of body weights, energy expenditure (VO2), and physical activities of mice during three days of monitoring in TSE-Systems metabolic cages. Mice were 37 weeks old and fed the very high fat diet for 31 weeks at the time of the study. 4A. Line graph showing body weights during three-day monitoring. Vehicle N=2; GLP-1s N=3. # p<0.01; ## p<0.006; ## p<0.008; ## p<0.007. 4B. Bar graph and line graph showing total body oxygen consumption (VO2) measured during both light and dark cycles for the three days of monitoring. Upper panel; Total VO2. Lower panel: Daily time-course of VO2 during light and dark cycles averaged over the three days. Vehicle N=2; GLP-1s N=3. 4C. Bar graph and line graph showing physical activity of the mice during the three days of the metabolic studies. Upper panel: Total activities averaged for light and dark cycles. Lower panel: Time-dependent measurements of activities. Activities were measured for hourly intervals during the light cycle of six hours (13:00 to 18:00) and for two hour intervals during the dark cycle of 12 hours (18:00 to 6:00). […] Vehicle N=2; GLP-1s N=3. The findings support a model of increased basal energy expenditure in mice infused with GLP-1(32-36)amide versus mice infused with control vehicle, independent of endogenous energy expenditure due to physical activity. N=3 mice for pentapeptide infusion and N=2 mice for control vehicle infusion.
FIGS. 4D-G show the results of metabolic measurements of energy expenditure (VO2) of monitoring in TSE-Systems metabolic cages. Mice were 33-34 weeks old and fed the very high fat diet for […] at the time of the study. 4D and 4E. Line graph and bar graph showing total body oxygen consumption (VO2) measured during the light phase during two days. 4F and 4G. Line graph and bar graph showing lean body oxygen consumption (VO2) measured during the light phase during two days.
Mice were single-caged for three days acclimatization and then transferred to single-cage metabolic chambers in a PhenoMaster/LabMaster system (TSE-Systems, Inc., Chesterfield, Mo.) for measurements of oxygen consumption, CO2, physical activity, and food intake during light and dark cycles for a period of 72 hrs.

## LVKGRamide (LVKGR-NH2) [GLP-1(32-36)amide, pentapeptide derived from the C-terminus of the glucoincretin hormone GLP-1]
[1]
  glucose production (formation): suppression
diet-induced obese mice; VHFD 31 weeks, infusion twelve weeks, vehicle 52 (FIG. 4A)
  body weight during three-day metabolic chamber monitoring: 38 grams
diet-induced obese mice; indirect calorimetric studies
  cumulative food consumption vs vehicle: lower
diet-induced obese mice; light and dark cycles (FIG. 4C)
  physical activity vs vehicle: not significantly different; also recorded: not associated with changes; also recorded: no significant differences
diet-induced obese mice; light cycle and dark cycle (FIG. 4B)
  whole body oxygen consumption (Total VO2) vs vehicle: significantly higher
diet-induced obese mice; light cycle and dark cycle (FIG. 4D, 4E)
  resting oxygen consumption vs vehicle: increase
